{
  "source": "patent US12527886B2",
  "about": "“Radiopharmaceuticals and composition for thrombus imaging” (THE ASAN FOUNDATION, priority 2020, dated 2026)",
  "test": "Stability of Tc-99m labeled compound, labeling purity by HPLC",
  "format": "physicochemical",
  "conditions": "99mTc-labeled, cysteine and VB1, until 4 hours (Table 11)",
  "protocol": "2 mL of Tc-99m was added dropwise to a lyophilized vial including 0.1 mg of GP-104, 15 μg of SnCl2, and 10 μg of cysteine, the vial was allowed to stand at room temperature for 10 minutes, and the reaction was terminated by adjusting pH to 7 using a NaOH solution. Labeling purity was confirmed to be 93.21% by HPLC (analysis conditions: Luna C18 250×4.6 mm, phosphate buffer:acetonitrile (100:0, 0 to 5 minutes; 80:20, 5 to 10 minutes; 80:20, 17 minutes; 100:0, 17.1 minutes). 100:0. 20 min), 1.0 mL/min, UV=280 nm).\nIn order to confirm the effect of cysteine addition after the reaction, the following experiment was performed: 0.1 mg of GP-104 was dissolved in water for injection, the pH was adjusted to about 3.5 when 10 μL of SnCl2 (1.5 mg/mL) and 2 mL of Tc-99m were added thereto, and the resulting mixture was allowed to stand at room temperature for 10 minutes. The reaction was terminated by adjusting the pH to 7 using a NaOH solution and 10 μL of cysteine (1.0 mg/mL). Labeling purity was confirmed to be 91.4% using HPLC in the same manner as in Example 2-7.\nAfter 0.1 mg of GP-104 was dissolved in water for injection, pH was adjusted to about 3.5 and the resulting solution was allowed to stand at room temperature for 10 minutes when 10 μL of SnCl2 (1.5 mg/mL), 10 μL of cysteine (1.0 mg/mL) and 2 mL of Tc-99m were added thereto, and the reaction was terminated by adjusting the pH to 7 using a NaOH solution. Labeling purity was confirmed to be 94.84% using HPLC in the same manner as in Example 2-7.\nHCl and NaOH was additionally added dropwise to the solution of Example 2-8 to perform a stability evaluation by adjusting the final pH of the solution to acidic (pH 5.5) and basic (pH 8.5) conditions, and labeling purity was confirmed using HPLC in the same manner as in Example 2-7.\nHCl and NaOH was additionally added dropwise to the solution of Example 2-9 to perform a stability evaluation by adjusting the final pH of the solution to acidic (pH 5.5) and basic (pH 8.5) conditions, and labeling purity was confirmed using HPLC in the same manner as in Example 2-7.\nHCl and NaOH was additionally added dropwise to the solution of Example 2-10 to perform a stability evaluation by adjusting the final pH of the solution to acidic (pH 5.5) and basic (pH 8.5) conditions, and labeling purity was confirmed using HPLC in the same manner as in Example 2-7.\n0.1 mg of GP-105 was dissolved in water for injection, the pH was adjusted to about 3.5 when 10 μL of SnCl2 (1.5 mg/mL) and 2 mL of Tc-99m were added thereto, and the resulting mixture was allowed to stand at room temperature for 10 minutes. The reaction was terminated by adjusting the pH to 7 using a NaOH solution and 10 μL of cysteine (1.0 mg/mL). Labeling purity was confirmed to be 98.1% using HPLC in the same manner as in Example 2-7.\nHCl and NaOH was additionally added dropwise to the solution of Example 2-12 to perform a stability evaluation by adjusting the final pH of the solution to acidic (pH 5.5) and basic (pH 8.5) conditions, and labeling purity was confirmed using HPLC in the same manner as in Example 2-7.\nHCl and NaOH was additionally added dropwise to the solution of Example 2-13 to perform a stability evaluation by adjusting the final pH of the solution to acidic (pH 5.5) and basic (pH 8.5) conditions, and labeling purity was confirmed using HPLC in the same manner as in Example 2-7.\nHCl and NaOH was additionally added dropwise to the solution of Example 2-14 to perform a stability evaluation by adjusting the final pH of the solution to acidic (pH 5.5) and basic (pH 8.5) conditions, and labeling purity was confirmed using HPLC in the same manner as in Example 2-7.",
  "data": [
    {"molecule": "O=C(O)C[C@H](NC(=O)[C@@H]1CCCN(C(=O)CCC2CCNCC2)C1)c1cncc(OCCNC(=O)CN(CC(=O)O)CC(=O)O)c1", "note": "[GP-105, 2,2′-((2-((2-((5-((S)-2-carboxy-1-((R)-1-(3-(piperidin-4-yl)propanoyl)piperidine-3-carboxamido)ethyl)pyridin-3-yl)oxy)ethyl)amino)-2-oxoethyl)azanediyl)diacetic acid]", "values": [
      {"measurement": "radiochemical purity", "setting": "acidic conditions", "value": "≥ 98", "unit": "%"},
      {"measurement": "radiochemical purity", "setting": "basic conditions", "value": "≥ 90", "unit": "%"},
      {"measurement": "radiochemical purity", "setting": "pH of 7", "value": "≥ 94", "unit": "%"}
    ]}
  ]
}
